Measured values reported in ChEMBL document CHEMBL1149626, “Aza analogues of equol: novel ligands for estrogen receptor beta” (Bioorg Med Chem, 2007).
Activity calls are given as the source filed them. The rule behind the calls is not given here.

Legend:
[1] = test system: Mus musculus; test: Effect on uterine wet weight in ovariectomized kunming mouse at 4 umol/kg, sc qd for 4 weeks; assay type: functional
[2] = test system: Mus musculus; test: Effect on bone mineral density in ovariectomized kunming mouse at 4 umol/kg, sc qd for 4 weeks; assay type: functional
[3] = target: T1, Estrogen receptor beta (Homo sapiens, UniProt Q92731); test: Agonist activity at human ERbeta expressed in yeast AH109 by yeast two hybrid assay; assay type: functional
[4] = target: T2, Estrogen receptor (Homo sapiens, UniProt P03372); test: Agonist activity at human ERalpha expressed in yeast AH109 by yeast two hybrid assay; assay type: functional
T2 sequence (P03372 whole entry): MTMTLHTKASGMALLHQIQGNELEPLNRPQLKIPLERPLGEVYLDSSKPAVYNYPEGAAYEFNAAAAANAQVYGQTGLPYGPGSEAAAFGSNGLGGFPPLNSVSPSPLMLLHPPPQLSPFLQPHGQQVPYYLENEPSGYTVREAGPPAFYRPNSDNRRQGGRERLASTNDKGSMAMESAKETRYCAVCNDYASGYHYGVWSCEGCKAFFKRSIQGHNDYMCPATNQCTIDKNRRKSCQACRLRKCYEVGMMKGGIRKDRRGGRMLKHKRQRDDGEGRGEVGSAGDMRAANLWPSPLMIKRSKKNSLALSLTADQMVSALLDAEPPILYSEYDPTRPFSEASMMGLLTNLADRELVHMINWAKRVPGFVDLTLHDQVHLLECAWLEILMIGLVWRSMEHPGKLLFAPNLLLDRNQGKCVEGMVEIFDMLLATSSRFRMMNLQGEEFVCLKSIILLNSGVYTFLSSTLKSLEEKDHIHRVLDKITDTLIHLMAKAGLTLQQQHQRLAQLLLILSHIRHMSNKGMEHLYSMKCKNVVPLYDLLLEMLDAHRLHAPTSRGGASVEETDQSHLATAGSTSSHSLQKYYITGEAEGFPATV

[5] = target: T3, Estrogen receptor (Homo sapiens) (UniProt P03372)
T3 sequence (whole entry): T2 sequence (P03372 whole entry)
Description: (§1) Displacement of [3H]17beta-estradiol from recombinant human ERalpha

[6] = target: T1, Estrogen receptor beta
Description: Displacement of [3H]17beta-estradiol from recombinant human ERbeta

[7] = species on record: Homo sapiens; test: Selectivity for human ERbeta over human ERalpha
[8] = target: T2, Estrogen receptor
Description: as §1

[9] = species on record: Homo sapiens; test: Selectivity ratio of EC50 for human ERalpha to EC50 for human ERbeta
[10] = target: T2, Estrogen receptor; test: Antagonist activity at ERalpha expressed in yeast AH109 assessed as inhibition of 17-beta-estradiol induced alpha-galactosidase activity; assay type: functional

T1 sequence (Q92731 whole entry): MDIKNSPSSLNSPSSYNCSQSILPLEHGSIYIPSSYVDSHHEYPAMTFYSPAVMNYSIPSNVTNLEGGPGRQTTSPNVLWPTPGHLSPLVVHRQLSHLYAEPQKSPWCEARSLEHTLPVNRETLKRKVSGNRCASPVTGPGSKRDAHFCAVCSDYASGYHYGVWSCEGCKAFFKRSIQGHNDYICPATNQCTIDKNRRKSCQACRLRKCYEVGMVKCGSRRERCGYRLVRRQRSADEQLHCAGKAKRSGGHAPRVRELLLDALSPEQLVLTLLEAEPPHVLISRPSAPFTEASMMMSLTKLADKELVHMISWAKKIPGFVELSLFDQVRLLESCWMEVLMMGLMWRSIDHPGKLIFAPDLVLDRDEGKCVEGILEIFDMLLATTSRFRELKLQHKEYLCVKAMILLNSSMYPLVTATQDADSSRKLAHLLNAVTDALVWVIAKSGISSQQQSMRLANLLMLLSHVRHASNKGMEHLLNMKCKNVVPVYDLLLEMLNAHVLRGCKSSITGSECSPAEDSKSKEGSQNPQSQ

| Structure (SMILES) | Activity [1] [mg] | Activity [2] [mg/cm3] | EC50 [3] [nM] | EC50 [4] [nM] | Activity [5] | IC50 [6] [nM] | Ratio IC50 [7] | IC50 [8] [nM] | Ratio EC50 [9] | IC50 [10] [nM] |
| --- | --- | --- | --- | --- | --- | --- | --- | --- | --- | --- |
| O=C(c1ccc(OCCN2CCCCC2)cc1)c1c(-c2ccc(O)cc2)sc2cc(O)ccc12 [RALOXIFENE] | 69.5 | 608 | – | – | – | – | – | – | – | – |
| Oc1ccc(-c2cnc3cc(O)ccc3c2)cc1 | 33.1 | 430 | 37500 | > 100000 | – | – | – | – | – | – |
| O=C(C1CC1)N1CC(c2ccc(O)cc2)Cc2ccc(O)cc21 (stereo not drawn) | – | – | – | – | inactive | 2950 | – | – | – | – |
| Oc1ccc(C2Cc3ccc(O)cc3NC2=S)cc1 (stereo not drawn) | 38.7 | 483 | – | – | inactive | 4900 | – | – | – | – |
| CN1CC(c2ccc(O)cc2)Cc2ccc(O)cc21 (stereo not drawn) | 31.8 | 455 | 300 | 15200 | – | 220 | 13.3 | 2950 | 50 | – |
| Oc1ccc(C2CNc3cc(O)ccc3C2)cc1 (stereo not drawn) | – | – | 9700 | > 100000 | – | – | – | – | – | – |
| CCCN1CC(c2ccc(O)cc2)Cc2ccc(O)cc21 (stereo not drawn) | 28.3 | 439 | 4750 | – | – | 140 | 17.9 | 2470 | – | 2650 |
| CC(=O)N1CC(c2ccc(O)cc2)Cc2ccc(O)cc21 (stereo not drawn) | 29.1 | 451 | – | – | – | – | – | – | – | – |
| Oc1ccc(C2Cc3ccc(O)cc3N(CC3CC3)C2)cc1 (stereo not drawn) | 30.8 | 461 | 6890 | – | – | 230 | 7.1 | 1630 | – | 5570 |
| CS(=O)(=O)N1CC(c2ccc(O)cc2)Cc2ccc(O)cc21 (stereo not drawn) | 32.5 | 475 | – | – | – | 520 | 61.5 | 32100 | – | – |
| CCN1CC(c2ccc(O)cc2)Cc2ccc(O)cc21 (stereo not drawn) | 31.7 | 454 | 580 | 24300 | – | 83 | 17 | 1410 | 41 | – |
| O=CN1CC(c2ccc(O)cc2)Cc2ccc(O)cc21 (stereo not drawn) | 36.4 | 463 | – | – | – | – | – | – | – | – |
